Strand notation (5' to 3'): a small letter for the sugar, then the base; units joined by * are phosphorothioate-linked, units joined directly phosphodiester-linked; [ ] holds rarer units or linkages, { } end groups; capitals alone tell only the bases. e = 2'-O-(2-methoxyethyl) (MOE); [5mC] = 5-methylcytosine; d = 2'-deoxy (DNA)
Tested on: human SMAD7 mRNA
Experiment: Antisense inhibition of human SMAD7 mRNA expression in Hep3B cells by 5-10-5 MOE gapmers, single concentration, electroporation, RT-PCR (Example 1, Study 1 and 2)
Type: cell-based
Conditions: Study 2, electroporation with 15,000 nM antisense oligonucleotide, 5-10-5 MOE gapmers targeting SEQ ID NO: 1 and 2
Outline: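 Hep3B cells (20,000/well) electroporated with 5-10-5 MOE gapmer at 5,000 nM or 15,000 nM for approximately 24 h. SMAD7 mRNA quantified by real-time PCR with primer probe set RTS5062 and normalized to RIBOGREEN total RNA. Values are percent inhibition relative to untreated controls.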

Substance	% inhibition of SMAD7 mRNA expression [%]	% Inhibition [%]
771582 (antisense e[5mC]*eT*eG*eG*e[5mC]*dA*dG*d[5mC]*dT*dG*d[5mC]*dT*dG*dG*dG*eA*e[5mC]*e[5mC]*e[5mC]*e[5mC]) [compound 771582]	37	–
771934 (antisense e[5mC]*eT*eG*eG*eA*dA*dA*dG*dG*dA*dA*dG*dA*d[5mC]*dT*e[5mC]*eG*eA*eG*eG) [compound 771934]	–	15
771766 (antisense e[5mC]*eT*eG*eA*eA*dG*d[5mC]*d[5mC]*d[5mC]*d[5mC]*d[5mC]*d[5mC]*dA*dA*dG*e[5mC]*e[5mC]*eA*eG*eG) [compound 771766]	–	5
771887 (antisense e[5mC]*eA*eG*e[5mC]*e[5mC]*dA*d[5mC]*dT*dG*d[5mC]*dT*dG*dT*d[5mC]*dT*eG*eA*eG*eG*eA) [compound 771887]	–	14
771383 (antisense eT*eA*e[5mC]*eA*e[5mC]*dA*dA*dA*dT*dA*dA*dA*dA*dA*d[5mC]*eA*e[5mC]*e[5mC]*eA*eA) [compound 771383]	–	0
771604 (antisense e[5mC]*e[5mC]*eT*eT*eG*dG*dG*dA*dA*dG*d[5mC]*d[5mC]*d[5mC]*dA*dT*e[5mC]*eT*e[5mC]*eA*eG) [compound 771604]	12	–
771630 (antisense eT*eG*e[5mC]*eT*eA*dA*dG*d[5mC]*dA*dT*dG*dT*d[5mC]*d[5mC]*d[5mC]*eT*e[5mC]*e[5mC]*e[5mC]*eA) [compound 771630]	37	–
771790 (antisense e[5mC]*eA*eA*eA*eA*d[5mC]*dT*d[5mC]*dT*d[5mC]*dT*dG*d[5mC]*d[5mC]*d[5mC]*eT*eG*eG*eA*e[5mC]) [compound 771790]	–	36
771631 (antisense eG*eG*eG*eA*e[5mC]*dT*dG*d[5mC]*dT*dA*dA*dG*d[5mC]*dA*dT*eG*eT*e[5mC]*e[5mC]*e[5mC]) [compound 771631]	0	–
771679 (antisense eG*e[5mC]*eA*eT*e[5mC]*dT*dT*dT*dT*d[5mC]*dT*dT*dT*dA*dT*eT*eT*eT*eT*e[5mC]) [compound 771679]	0	–
771855 (antisense eT*e[5mC]*e[5mC]*e[5mC]*eG*dA*d[5mC]*dT*dT*dT*dG*d[5mC]*dA*dA*dG*eA*eT*eG*eA*eA) [compound 771855]	–	38
771652 (antisense eA*eT*eT*eG*eA*dG*d[5mC]*dT*dA*dA*dG*dA*dA*d[5mC]*dA*eG*eT*eG*eT*e[5mC]) [compound 771652]	0	–
771413 (eT*eG*eT*e[5mC]*e[5mC]*dG*dT*d[5mC]*dG*d[5mC]*d[5mC]*d[5mC]*d[5mC]*dT*dT*e[5mC]*eT*e[5mC]*e[5mC]*e[5mC]; antisense) [compound 771413]	–	24
771830 (antisense eT*eT*eT*eA*eG*dG*dT*dA*dG*dA*dG*dT*dG*dG*d[5mC]*e[5mC]*eG*eG*eG*eA) [compound 771830]	–	40
771580 (antisense eA*eG*e[5mC]*eT*eT*dG*d[5mC]*d[5mC]*d[5mC]*dA*dG*dG*dT*dA*d[5mC]*eT*eG*e[5mC]*e[5mC]*eT) [compound 771580]	25	–
771362 (antisense eG*eT*eA*eA*eG*dA*d[5mC]*dA*dG*dA*d[5mC]*d[5mC]*dA*d[5mC]*dA*eG*e[5mC]*eA*e[5mC]*e[5mC]) [compound 771362]	–	15
771854 (antisense eT*e[5mC]*e[5mC]*e[5mC]*e[5mC]*dG*d[5mC]*d[5mC]*dT*dT*dT*dT*d[5mC]*dT*dT*e[5mC]*e[5mC]*eT*eG*eG) [compound 771854]	–	9
771839 (antisense e[5mC]*eA*e[5mC]*eA*eG*d[5mC]*dA*d[5mC]*d[5mC]*dG*dT*dT*dA*d[5mC]*dT*eG*eG*eA*e[5mC]*eA) [compound 771839]	–	21
771496 (antisense eT*eG*eA*e[5mC]*e[5mC]*dT*d[5mC]*dT*dA*dG*d[5mC]*d[5mC]*dA*dG*d[5mC]*eA*e[5mC]*eG*eG*eG) [compound 771496]	20	–

Same assay, conditions: electroporation with 15,000 nM antisense oligonucleotide (Study 2), 5-10-5 MOE gapmers targeting SEQ ID NO: 1 and 2

Substance	% Inhibition of SMAD7 mRNA [%]	% inhibition of SMAD7 mRNA expression [%]
771792 (antisense eA*eG*e[5mC]*eA*e[5mC]*dA*d[5mC]*d[5mC]*d[5mC]*d[5mC]*dA*d[5mC]*d[5mC]*d[5mC]*d[5mC]*e[5mC]*eA*e[5mC]*e[5mC]*eT) [compound 771792]	33	–
771880 (antisense eT*e[5mC]*e[5mC]*e[5mC]*eT*dG*dG*dT*dT*dT*dT*dG*d[5mC]*dA*dG*eG*eT*eG*eG*eT) [compound 771880]	41	–
771505 (antisense e[5mC]*eT*e[5mC]*eA*eG*d[5mC]*dT*d[5mC]*dA*d[5mC]*dG*d[5mC]*dT*d[5mC]*dT*eG*eT*e[5mC]*e[5mC]*e[5mC]) [compound 771505]	29	–
771347 (antisense eT*eG*eG*eG*e[5mC]*d[5mC]*dA*d[5mC]*dT*dG*dG*dT*dG*dT*dT*e[5mC]*eG*eA*e[5mC]*eG) [compound 771347]	32	–
771689 (antisense eA*eG*eT*eG*eT*dA*d[5mC]*dA*dT*dT*dT*dT*dA*dA*dA*eA*eA*eT*e[5mC]*eG) [compound 771689]	–	30
771896 (antisense eG*eG*eG*e[5mC]*e[5mC]*d[5mC]*d[5mC]*d[5mC]*dT*dT*d[5mC]*dT*dG*d[5mC]*d[5mC]*eT*eT*e[5mC]*eA*eT) [compound 771896]	17	–
771952 (antisense eT*e[5mC]*eT*eT*e[5mC]*dT*d[5mC]*dT*dG*d[5mC]*dA*dG*dA*dG*d[5mC]*eA*e[5mC]*eA*eG*eA) [compound 771952]	26	–
771355 (antisense e[5mC]*eA*eG*eT*eT*d[5mC]*dG*dG*d[5mC]*d[5mC]*dT*dT*d[5mC]*d[5mC]*dA*eT*e[5mC]*e[5mC]*eA*eA) [compound 771355]	13	–
771658 (antisense eA*eA*eT*eA*eG*d[5mC]*dT*dT*dA*dT*dG*dT*dT*dA*dA*eA*eG*eT*e[5mC]*eT) [compound 771658]	–	33

Same assay, conditions: electroporation, 15,000 nM antisense oligonucleotide (Study 2), 5-10-5 MOE gapmers targeting SEQ ID NO: 1 and 2

Substance	% inhibition of SMAD7 mRNA expression [%]
771953 (antisense eT*e[5mC]*eA*e[5mC]*e[5mC]*dA*dG*d[5mC]*dT*d[5mC]*dA*dT*d[5mC]*dT*d[5mC]*eT*e[5mC]*eA*eG*eG) [compound 771953]	42
771434 (eG*e[5mC]*e[5mC]*eG*e[5mC]*dT*d[5mC]*d[5mC]*dT*dT*d[5mC]*dA*dG*dT*dT*eT*e[5mC]*eT*eT*eG; antisense) [compound 771434]	27
771467 (antisense e[5mC]*eA*eT*eA*eG*dA*dA*dG*dA*dT*dA*dT*d[5mC]*d[5mC]*dA*eG*eA*eG*eA*eG) [compound 771467]	11
771792 (antisense eA*eG*e[5mC]*eA*e[5mC]*dA*d[5mC]*d[5mC]*d[5mC]*d[5mC]*dA*d[5mC]*d[5mC]*d[5mC]*d[5mC]*e[5mC]*eA*e[5mC]*e[5mC]*eT) [compound 771792]	2
771578 (antisense e[5mC]*eT*eG*e[5mC]*e[5mC]*dT*d[5mC]*dT*dG*d[5mC]*d[5mC]*d[5mC]*d[5mC]*dA*d[5mC]*eT*eG*eA*eG*e[5mC]) [compound 771578]	50
771538 (antisense eT*eT*eT*e[5mC]*eT*d[5mC]*dA*dA*dA*dG*dA*dG*d[5mC]*dG*dA*eA*eA*e[5mC]*eA*eA) [compound 771538]	24
771880 (antisense eT*e[5mC]*e[5mC]*e[5mC]*eT*dG*dG*dT*dT*dT*dT*dG*d[5mC]*dA*dG*eG*eT*eG*eG*eT) [compound 771880]	29
771505 (antisense e[5mC]*eT*e[5mC]*eA*eG*d[5mC]*dT*d[5mC]*dA*d[5mC]*dG*d[5mC]*dT*d[5mC]*dT*eG*eT*e[5mC]*e[5mC]*e[5mC]) [compound 771505]	0
771347 (antisense eT*eG*eG*eG*e[5mC]*d[5mC]*dA*d[5mC]*dT*dG*dG*dT*dG*dT*dT*e[5mC]*eG*eA*e[5mC]*eG) [compound 771347]	0
771698 (antisense e[5mC]*eA*e[5mC]*eA*e[5mC]*dT*d[5mC]*dT*d[5mC]*d[5mC]*d[5mC]*dA*dG*dG*dA*eG*eG*eG*eT*eA) [compound 771698]	43
771896 (antisense eG*eG*eG*e[5mC]*e[5mC]*d[5mC]*d[5mC]*d[5mC]*dT*dT*d[5mC]*dT*dG*d[5mC]*d[5mC]*eT*eT*e[5mC]*eA*eT) [compound 771896]	0
771514 (antisense eT*eT*eA*eG*e[5mC]*dA*dG*d[5mC]*dA*dA*dA*dG*dT*dA*dG*eT*eT*eT*eG*eA) [compound 771514]	19
771952 (antisense eT*e[5mC]*eT*eT*e[5mC]*dT*d[5mC]*dT*dG*d[5mC]*dA*dG*dA*dG*d[5mC]*eA*e[5mC]*eA*eG*eA) [compound 771952]	0
771355 (antisense e[5mC]*eA*eG*eT*eT*d[5mC]*dG*dG*d[5mC]*d[5mC]*dT*dT*d[5mC]*d[5mC]*dA*eT*e[5mC]*e[5mC]*eA*eA) [compound 771355]	0

Same assay, conditions: electroporation, 15,000 nM, approximately 24 hours, relative to untreated control cells, gapmers targeting SEQ ID NO: 1 and 2

Substance	% inhibition of SMAD7 mRNA expression [%]
771805 (antisense eG*eA*eT*eT*eA*dT*dA*dT*dA*dG*dG*dT*dA*dT*dT*eT*eT*eT*eG*eA) [compound 771805]	0
771941 (antisense eT*e[5mC]*eA*eA*eT*dG*dA*dT*dG*dA*dT*dG*dG*dG*dT*eT*eG*e[5mC]*eA*e[5mC]) [compound 771941]	40
771741 (antisense eG*eG*eT*e[5mC]*eT*d[5mC]*dA*d[5mC]*d[5mC]*dT*dT*dA*dG*dG*d[5mC]*e[5mC]*eT*eG*eT*eG) [compound 771741]	53
771605 (antisense eG*eG*e[5mC]*eT*eG*d[5mC]*d[5mC]*d[5mC]*d[5mC]*dG*dG*d[5mC]*dA*dG*d[5mC]*e[5mC]*e[5mC]*eT*eT*eG) [compound 771605]	26
771845 (antisense eT*eT*e[5mC]*e[5mC]*eA*dA*dG*d[5mC]*dA*d[5mC]*dG*dG*dA*dG*dT*e[5mC]*eA*eG*e[5mC]*e[5mC]) [compound 771845]	39
771853 (antisense eA*eG*e[5mC]*eT*eT*dG*dG*dA*dA*dG*d[5mC]*d[5mC]*dA*dT*d[5mC]*eG*eG*eT*eT*eG) [compound 771853]	36
771422 (eA*eT*e[5mC]*e[5mC]*eA*dG*d[5mC]*d[5mC]*d[5mC]*dT*dG*d[5mC]*d[5mC]*d[5mC]*dG*eG*eG*e[5mC]*e[5mC]*eG; antisense) [compound 771422]	27
771693 (antisense eT*e[5mC]*e[5mC]*e[5mC]*eA*dG*dG*dA*dG*dG*dG*dT*dA*dT*dG*e[5mC]*eA*e[5mC]*eA*e[5mC]) [compound 771693]	45
